Reference: US20140363489A1, “TREATMENT OF EYE DISEASE” (Panacea Pharmaceuticals, priority 2013, published 2014)
Entries after “also recorded” stand apart in the source; their conditions may differ. Like-named read-outs stand apart in the source and are kept apart here.

How the values were obtained:
retinal degeneration [1] = details: RSC rats; cited from earlier work
retinal degeneration [2] = details: RCS, P23H, S334ter, photo stress rats, rd mice, CAR model rats (Ohguro, 2008); cited from earlier work
[3] = tested on: photoreceptor neurons of rd1 mouse retina; assay: ex vivo rd1 mouse retina culture, photoreceptor rows and nucleus numbers; format: cell-based; details: 10 μM
Experimental: The effect of PAN-811 was examined in an ex vivo model, in which retinas were isolated from rd1 mouse at PN7 and treated in culture with 0, 2 and 10 μM PAN-811 for 21 days (equal to PN28).
The one model of RP study is rd1 mouse in which, like in RP patient, the gene for β-phospodiesterase is spontaneously mutated in rod photoreceptor neurons results in the rod cell loss. The apoptosis starts at postnatal day (PN) 9 to 10, peaks at PN13 and is completed at PN21.
To test the effect PAN-811, retinas from rd1 (C3H strain) mice at PN7 were cultured in the presence of 0 (n=6), 2 (n=6) and 10 (n=7) μM PAN-811. After 21 days in vitro (equal to PN28), the hematoxylin/eosin stained retinal section was analyzed at five positions; the very center of the retina plus at two positions on each side of this, approximately 200 μm apart, and referred to as mid-periphery and periphery, respectively. The retina from the rd1 mouse commonly carried only a thin layer of photoreceptor neurons (FIG. 1A—photo on left). […] Quantitatively, a control group has two layers of photoreceptor neurons at center, mid-periphery or pheriphery (FIG. 1B). PAN-811 at a concentration of 10 μM, but not 2 μM, increased the row numbers from 2 to 3 (P<0.05) at all measured areas.
Nucleus numbers for photoreceptor neurons that locate in center (n=7), mid-periphery (n=6) and periphery (n=6) were counted on photos (within 35 mm length of rode photoreceptor layer after magnification) by ImageJ software (NIH) and the data were expressed as percentage of untreated control. […]
Twenty retinas from 10 rd1 mice (C3H strain) were dissected out at PN7 and mounted flat on HA mixed cellulose, 0.45 μm membranes fitted to culture dish inserts (Millipore Corp). […] The sections were analyzed and photographed under a microscope, blindly with respect to origin The rows of photoreceptors in the outer nuclear layer of the retina were quantitatively evaluated in a total of at least 30 sections for each preparation (4 slides from each preparation and 8 sections from each slide). […]

ischemic stroke = ischemic stroke model (Jiang et al., 2006); cited from earlier work
[4] = cited from earlier work

**Q.** Which “effect against retinal degeneration” value (retinal degeneration [1]) does the source give for `COC(=O)C1=C(C#N)NC(C)=C(C(=O)OC(C)C)C1c1cccc([N+](=O)[O-])c1` (stereo not shown) [Nilvadipine] here?
**A.** beneficial effect against retinal degeneration

**Q.** And the “effect against retinal degeneration” value (retinal degeneration [2])?
**A.** beneficial effects against retinal degeneration in all models tested

**Q.** What does the source list for `NC(=S)N/N=C/c1ncccc1N` [PAN-811, 3-aminopyridine-2-carboxaldehyde thiosemicarbazone]?
**A.** increase of nucleus numbers of photoreceptor neurons vs untreated control ([3]; 21 days in vitro, center, mid-periphery and periphery, P<0.01): about 50%; row numbers of photoreceptor neurons ([3]; 21 days in vitro, center, mid-periphery, periphery, control 2 rows, P<0.05): 3; loss of photoreceptor neurons / thickness of photoreceptor layer ([3]; retinas from rd1 mouse at PN7, 21 days in culture): prevents loss of photoreceptor neurons; also recorded: prevented the loss of photoreceptor neurons; also recorded: thicker; neuroprotective activity (ischemic stroke): potent neuroprotective activity

B1: CNTF: Ciliary neurotrophic factor, neurotrophic factor delivered into eye (protein, UniProt P26441 1-200, looked up)
Ciliary neurotrophic factor: MAFTEHSPLTPHRRDLCSRSIWLARKIRSDLTALTESYVKHQGLNKNINLDSADGMPVASTDQWSELTEAERLQENLQAYRTFHVLLARLLEDQQVHFTPTEGDFHQAIHTLLLQVAAFAYQIEELMILLEYKIPRNEADGMPINVGDGGLFEKKLWGLKVLQELSQWTVRSIHDLRFISSHQTGIPARGSHYIANNKKM
**Q.** For B1, which half-life in vivo [4] is on record?
**A.** 2 to 6.67 h
